Reference: patent US12338237B2, “Derivatives having 1,2,3,4-tetrahydronaphthalene moiety or pharmaceutically acceptable salt thereof and pharmaceutical compositions comprising the same” (YUHAN CORPORATION, priority 2019, dated 2025)
Read-outs that look alike come from different tables or passages of the source.

Experiments:
[1] = biological target: glucosylceramide synthase (GCS) (Homo sapiens (Human), UniProt Q16739); assay: Evaluation of inhibitory activities against GCS (enzyme reaction with A549 cell lysate, NBD C6-ceramide, HPLC fluorescence); assay type: biochemical; conditions: GCS activity in A549 cell lysate, 37° C. for 90 minutes
Chain of glucosylceramide synthase (GCS) (Q16739 whole entry, looked up): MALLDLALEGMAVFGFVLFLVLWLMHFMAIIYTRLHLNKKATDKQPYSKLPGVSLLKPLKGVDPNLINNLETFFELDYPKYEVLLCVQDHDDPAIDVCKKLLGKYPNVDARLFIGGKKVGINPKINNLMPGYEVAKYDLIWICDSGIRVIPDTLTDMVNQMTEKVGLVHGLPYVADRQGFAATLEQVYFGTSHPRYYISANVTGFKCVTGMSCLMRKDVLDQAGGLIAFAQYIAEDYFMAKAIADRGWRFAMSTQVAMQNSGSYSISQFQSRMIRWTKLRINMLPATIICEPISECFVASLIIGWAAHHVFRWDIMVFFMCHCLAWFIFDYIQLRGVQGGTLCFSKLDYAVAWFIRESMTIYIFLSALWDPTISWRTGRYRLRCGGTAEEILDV
Experimental: Ibiglustat, known as a GCS inhibitor, was used as a control.
After the cells attached to the culture dish were washed with phosphate buffered saline (PBS), the cells were scraped off with a cell scraper and then centrifuged (4000 rpm, 3 min, 4° C.) to collect the cells in a 50 ml tube. The cell pellets were suspended in a lysis buffer (50 mM HEPES, pH 7.3, containing 1× the protease/phosphatase inhibitor cocktail), lysed by sonication, and then the lysate was centrifuged (13000 rpm, 10 min, 4° C.). The obtained supernatant was used for the quantitative analysis of proteins. The amount of proteins was measured using the BCA protein assay kit, using bovine serum albumin as a standard.
Enzymatic reactions were initiated by sequentially adding the following reaction materials to a 96 deep-well plate. Thereafter, the enzymatic reactions were performed at 37° C. for 90 minutes.
The enzymatic reactions were stopped by adding 100 μl of chloroform/methanol (2:1, v/v). After vortexing for 15 seconds, each mixture was centrifuged (4000 rpm, 10 min, 18° C.). The lower layer (50 μl) was transferred to a new 96 deep-well plate and dried with a reduced concentrator.
Data analysis was performed by the following equations. % Area (Sample)=Area (GlcCer)/[Area (Cer)+Area (GlcCer)]×100 % GCS activity=[Area(Sample)−Area(ibiglustat)]/[Area(DMSO)−Area(ibiglustat)]×100

GM1 production = assay: cells; assay type: cell-based

O=C(NC1CCCc2cc(-c3ccc(F)cc3)ccc21)O[C@@H]1CN2CCC1CC2 (stereo partly drawn) [Example 1, (S)-quinuclidin-3-yl (6-(4-fluorophenyl)-1,2,3,4-tetrahydronaphthalen-1-yl)carbamate]
IC50 [1]: 6.78 nM
IC50 (GM1 production; Homo sapiens, Jurkat, 72 h): 62.6 nM

O=C(NC1CCCc2cc(-c3ccc(Cl)cc3)ccc21)O[C@@H]1CN2CCC1CC2 (stereo partly drawn) [Example 2, (S)-quinuclidin-3-yl (6-(4-chlorophenyl)-1,2,3,4-tetrahydronaphthalen-1-yl)carbamate]
IC50 [1]: 3.04 nM
IC50 (GM1 production; Homo sapiens, Jurkat, 72 h): 54.5 nM

O=C(NC1CCCc2cc(-c3ccc(C(F)(F)F)cc3)ccc21)O[C@@H]1CN2CCC1CC2 (stereo partly drawn) [Example 3, (S)-quinuclidin-3-yl (6-(4-(trifluoromethyl)phenyl)-1,2,3,4-tetrahydronaphthalen-1-yl)carbamate]
IC50 [1]: 2.3 nM
IC50 (GM1 production; Homo sapiens, Jurkat, 72 h): 58.7 nM

O=C(NC1CCCc2cc(-c3ccc(OC(F)(F)F)cc3)ccc21)O[C@@H]1CN2CCC1CC2 (stereo partly drawn) [Example 4, (S)-quinuclidin-3-yl (6-(4-(trifluoromethoxy)phenyl)-1,2,3,4-tetrahydronaphthalen-1-yl)carbamate]
IC50 [1]: 1.42 nM
IC50 (GM1 production; Homo sapiens, Jurkat, 72 h): 34.9 nM

O=C(NC1CCCc2cc(-c3cccc(F)c3)ccc21)O[C@@H]1CN2CCC1CC2 (stereo partly drawn) [Example 5, (S)-quinuclidin-3-yl (6-(3-fluorophenyl)-1,2,3,4-tetrahydronaphthalen-1-yl)carbamate]
IC50 [1]: 0.989 nM
IC50 (GM1 production; Homo sapiens, Jurkat, 72 h): 27.1 nM

O=C(NC1CCCc2cc(-c3cccc(Cl)c3)ccc21)O[C@@H]1CN2CCC1CC2 (stereo partly drawn) [Example 6, (S)-quinuclidin-3-yl (6-(3-chlorophenyl)-1,2,3,4-tetrahydronaphthalen-1-yl)carbamate]
IC50 [1]: 0.697 nM
IC50 (GM1 production; Homo sapiens, Jurkat, 72 h): 15.8 nM

O=C(NC1CCCc2cc(-c3cccc(C(F)(F)F)c3)ccc21)O[C@@H]1CN2CCC1CC2 (stereo partly drawn) [Example 7, (S)-quinuclidin-3-yl (6-(3-(trifluoromethyl)phenyl)-1,2,3,4-tetrahydronaphthalen-1-yl)carbamate]
IC50 [1]: 1.69 nM
IC50 (GM1 production; Homo sapiens, Jurkat, 72 h): 13.6 nM

O=C(NC1CCCc2cc(-c3cccc(OC(F)(F)F)c3)ccc21)O[C@@H]1CN2CCC1CC2 (stereo partly drawn) [Example 8, (S)-quinuclidin-3-yl (6-(3-(trifluoromethoxy)phenyl)-1,2,3,4-tetrahydronaphthalen-1-yl)carbamate]
IC50 [1]: 2.1 nM
IC50 (GM1 production; Homo sapiens, Jurkat, 72 h): 12.4 nM

O=C(NC1CCCc2cc(-c3ccccc3F)ccc21)O[C@@H]1CN2CCC1CC2 (stereo partly drawn) [Example 9, (S)-quinuclidin-3-yl (6-(2-fluorophenyl)-1,2,3,4-tetrahydronaphthalen-1-yl)carbamate]
IC50 [1]: 2.65 nM
IC50 (GM1 production; Homo sapiens, Jurkat, 72 h): 41.3 nM

O=C(NC1CCCc2cc(-c3ccccc3Cl)ccc21)O[C@@H]1CN2CCC1CC2 (stereo partly drawn) [Example 10, (S)-quinuclidin-3-yl (6-(2-chlorophenyl)-1,2,3,4-tetrahydronaphthalen-1-yl)carbamate]
IC50 [1]: 2.56 nM
IC50 (GM1 production; Homo sapiens, Jurkat, 72 h): 37.7 nM

O=C(NC1CCCc2cc(-c3ccccc3C(F)(F)F)ccc21)O[C@@H]1CN2CCC1CC2 (stereo partly drawn) [Example 11, (S)-quinuclidin-3-yl (6-(2-(trifluoromethyl)phenyl)-1,2,3,4-tetrahydronaphthalen-1-yl)carbamate]
IC50 [1]: 8.18 nM
IC50 (GM1 production; Homo sapiens, Jurkat, 72 h): 38.5 nM

O=C(NC1CCCc2cc(-c3ccccc3OC(F)(F)F)ccc21)O[C@@H]1CN2CCC1CC2 (stereo partly drawn) [Example 12, (S)-quinuclidin-3-yl (6-(2-(trifluoromethoxy)phenyl)-1,2,3,4-tetrahydronaphthalen-1-yl)carbamate]
IC50 [1]: 9.28 nM
IC50 (GM1 production; Homo sapiens, Jurkat, 72 h): 19.6 nM

O=C(NC1CCCc2cc(-c3ccc(OC(F)F)cc3)ccc21)O[C@@H]1CN2CCC1CC2 (stereo partly drawn) [Example 13, (S)-quinuclidin-3-yl (6-(4-(difluoromethoxy)phenyl)-1,2,3,4-tetrahydronaphthalen-1-yl)carbamate]
IC50 [1]: 23.5 nM
IC50 (GM1 production; Homo sapiens, Jurkat, 72 h): 143 nM

Cc1ccc(-c2ccc3c(c2)CCCC3NC(=O)O[C@@H]2CN3CCC2CC3)cc1 (stereo partly drawn) [Example 14, (S)-quinuclidin-3-yl (6-(p-tolyl)-1,2,3,4-tetrahydronaphthalen-1-yl)carbamate]
IC50 [1]: 8.8 nM
IC50 (GM1 production; Homo sapiens, Jurkat, 72 h): 61.8 nM

O=C(NC1CCCc2cc(-c3ccc(F)c(F)c3)ccc21)O[C@@H]1CN2CCC1CC2 (stereo partly drawn) [Example 15, (S)-quinuclidin-3-yl (6-(3,4-difluorophenyl)-1,2,3,4-tetrahydronaphthalen-1-yl)carbamate]
IC50 [1]: 6.88 nM
IC50 (GM1 production; Homo sapiens, Jurkat, 72 h): 19.7 nM

O=C(NC1CCCc2cc(-c3cc(F)ccc3F)ccc21)O[C@@H]1CN2CCC1CC2 (stereo partly drawn) [Example 16, (S)-quinuclidin-3-yl (6-(2,5-difluorophenyl)-1,2,3,4-tetrahydronaphthalen-1-yl)carbamate]
IC50 [1]: 3.96 nM
IC50 (GM1 production; Homo sapiens, Jurkat, 72 h): 34 nM

O=C(NC1CCCc2cc(-c3cc(F)cc(F)c3)ccc21)O[C@@H]1CN2CCC1CC2 (stereo partly drawn) [Example 17, (S)-quinuclidin-3-yl (6-(3,5-difluorophenyl)-1,2,3,4-tetrahydronaphthalen-1-yl)carbamate]
IC50 [1]: 5.75 nM
IC50 (GM1 production; Homo sapiens, Jurkat, 72 h): 37 nM

O=C(NC1CCCc2cc(-c3ccc(F)cc3F)ccc21)O[C@@H]1CN2CCC1CC2 (stereo partly drawn) [Example 18, (S)-quinuclidin-3-yl (6-(2,4-difluorophenyl)-1,2,3,4-tetrahydronaphthalen-1-yl)carbamate]
IC50 [1]: 5.41 nM
IC50 (GM1 production; Homo sapiens, Jurkat, 72 h): 99.2 nM

O=C(NC1CCCc2cc(-c3cccc(F)c3F)ccc21)O[C@@H]1CN2CCC1CC2 (stereo partly drawn) [Example 19, (S)-quinuclidin-3-yl (6-(2,3-difluorophenyl)-1,2,3,4-tetrahydronaphthalen-1-yl)carbamate]
IC50 [1]: 3.44 nM
IC50 (GM1 production; Homo sapiens, Jurkat, 72 h): 67.4 nM

O=C(NC1CCCc2cc(-c3ccc(F)c(F)c3F)ccc21)O[C@@H]1CN2CCC1CC2 (stereo partly drawn) [Example 20, (S)-quinuclidin-3-yl (6-(2,3,4-trifluorophenyl)-1,2,3,4-tetrahydronaphthalen-1-yl)carbamate]
IC50 [1]: 7.16 nM
IC50 (GM1 production; Homo sapiens, Jurkat, 72 h): 84.4 nM

O=C(NC1CCCc2cc(-c3cc(F)c(F)cc3F)ccc21)O[C@@H]1CN2CCC1CC2 (stereo partly drawn) [Example 21, (S)-quinuclidin-3-yl (6-(2,4,5-trifluorophenyl)-1,2,3,4-tetrahydronaphthalen-1-yl)carbamate]
IC50 [1]: 2.53 nM
IC50 (GM1 production; Homo sapiens, Jurkat, 72 h): 42.1 nM

O=C(NC1CCCc2cc(-c3ccc(Cl)c(Cl)c3)ccc21)O[C@@H]1CN2CCC1CC2 (stereo partly drawn) [Example 22, (S)-quinuclidin-3-yl (6-(3,4-dichlorophenyl)-1,2,3,4-tetrahydronaphthalen-1-yl)carbamate]
IC50 [1]: 8.42 nM
IC50 (GM1 production; Homo sapiens, Jurkat, 72 h): 22.5 nM

O=C(NC1CCCc2cc(-c3cc(Cl)ccc3Cl)ccc21)O[C@@H]1CN2CCC1CC2 (stereo partly drawn) [Example 23, (S)-quinuclidin-3-yl (6-(2,5-dichlorophenyl)-1,2,3,4-tetrahydronaphthalen-1-yl)carbamate]
IC50 [1]: 1.8 nM
IC50 (GM1 production; Homo sapiens, Jurkat, 72 h): 27.7 nM

O=C(NC1CCCc2cc(-c3cc(Cl)cc(Cl)c3)ccc21)O[C@@H]1CN2CCC1CC2 (stereo partly drawn) [Example 24, (S)-quinuclidin-3-yl (6-(3,5-dichlorophenyl)-1,2,3,4-tetrahydronaphthalen-1-yl)carbamate]
IC50 [1]: 9.1 nM
IC50 (GM1 production; Homo sapiens, Jurkat, 72 h): 23.1 nM

COCCOc1ccc(-c2ccc3c(c2)CCCC3NC(=O)O[C@@H]2CN3CCC2CC3)cc1 (stereo partly drawn) [Example 25, (S)-quinuclidin-3-yl (6-(4-(2-methoxyethoxy)phenyl)-1,2,3,4-tetrahydronaphthalen-1-yl)carbamate]
IC50 [1]: 15 nM
IC50 (GM1 production; Homo sapiens, Jurkat, 72 h): 45.1 nM

COCOc1ccc(-c2ccc3c(c2)CCCC3NC(=O)O[C@@H]2CN3CCC2CC3)cc1 (stereo partly drawn) [Example 26, (S)-quinuclidin-3-yl (6-(4-(methoxymethoxy)phenyl)-1,2,3,4-tetrahydronaphthalen-1-yl)carbamate]
IC50 [1]: 6.61 nM
IC50 (GM1 production; Homo sapiens, Jurkat, 72 h): 30.8 nM

COCCOc1cccc(-c2ccc3c(c2)CCCC3NC(=O)O[C@@H]2CN3CCC2CC3)c1 (stereo partly drawn) [Example 27, (S)-quinuclidin-3-yl (6-(3-(2-methoxyethoxy)phenyl)-1,2,3,4-tetrahydronaphthalen-1-yl)carbamate]
IC50 [1]: 2.49 nM
IC50 (GM1 production; Homo sapiens, Jurkat, 72 h): 30.3 nM

COCOc1cccc(-c2ccc3c(c2)CCCC3NC(=O)O[C@@H]2CN3CCC2CC3)c1 (stereo partly drawn) [Example 28, (S)-quinuclidin-3-yl (6-(3-(methoxymethoxy)phenyl)-1,2,3,4-tetrahydronaphthalen-1-yl)carbamate]
IC50 [1]: 1.33 nM
IC50 (GM1 production; Homo sapiens, Jurkat, 72 h): 5.31 nM

COCCOc1ccccc1-c1ccc2c(c1)CCCC2NC(=O)O[C@@H]1CN2CCC1CC2 (stereo partly drawn) [Example 29, (S)-quinuclidin-3-yl (6-(2-(2-methoxyethoxy)phenyl)-1,2,3,4-tetrahydronaphthalen-1-yl)carbamate]
IC50 [1]: 8.52 nM
IC50 (GM1 production; Homo sapiens, Jurkat, 72 h): 156 nM

COCOc1ccccc1-c1ccc2c(c1)CCCC2NC(=O)O[C@@H]1CN2CCC1CC2 (stereo partly drawn) [Example 30, (S)-quinuclidin-3-yl (6-(2-(methoxymethoxy)phenyl)-1,2,3,4-tetrahydronaphthalen-1-yl)carbamate]
IC50 [1]: 7.93 nM
IC50 (GM1 production; Homo sapiens, Jurkat, 72 h): 71.4 nM

O=C(NC1CCCc2ccc(-c3cccc(C(F)(F)F)c3)cc21)O[C@@H]1CN2CCC1CC2 (stereo partly drawn) [Example 60, (S)-quinuclidin-3-yl (7-(3-(trifluoromethyl)phenyl)-1,2,3,4-tetrahydronaphthalen-1-yl)carbamate]
IC50 [1]: 106 nM

CC1(C)CCc2cc(-c3cccc(F)c3F)ccc2C1NC(=O)O[C@@H]1CN2CCC1CC2 (stereo partly drawn) [Example 102, (S)-quinuclidin-3-yl (6-(2,3-difluorophenyl)-2,2-dimethyl-1,2,3,4-tetrahydronaphthalen-1-yl)carbamate]
IC50 (GM1 production; read-out: IC50): 1.43 nM
